One assay has as its system WSSV. Briefly: Antiviral activity detection: WSSV pre-incubated with peptide injected into E. carinicauda, in vivo WSSV copy number. On the set-up: species or system Exopalaemon carinicauda. As to conditions: E. carinicauda pleopods, 24 h post injection; WSSV (10^3 copies/μL) pre-incubated 2 h at room temperature with 50 μM peptide, 10 μL injected; VP28 real-time PCR; n = 15; WSSV group 1.21 × 10^5, blank 1.31 × 10^3. How it is done:
Exopalaemon carinicauda is being regarded as a good crustacean model animal for WSSV infection experiments. In this study, healthy E. carinicauda with a body length of 5.43 ± 0.30 cm and a body weight of 2.62 ± 0.42 g were used as experimental animals for WSSV infection assay. Animals were acclimatized in the aerated seawater at 25 °C for 1 day before experiments.
In order to learn the effect of synthetic LBD peptides on WSSV infection, WSSV pre-incubated with different peptides was injected into E. carinicauda and the WSSV copy number in the pleopods of E. carinicauda was detected. E. carinicauda was classified into 13 groups and each group contained 18 to 20 individuals. The 13 groups were named as Blank, WSSV, pGFP, LBD1, LBD2, LBD3, LBD4, LBD5, LBD6, LBD7, sLBD2, LBD2-K and LBD4+K, respectively. Synthetic peptides were diluted into 50 μM with PBS (pH 7.4). WSSV was incubated with each peptide solution for 2 h at room temperature with a final concentration 10^3 copies/μL. […] For WSSV group, each shrimp was injected with 10 μL WSSV incubated with PBS (pH 7.4) for 2 h at room temperature. For the other groups (LBD1–LBD7, sLBD2, LBD2-K and LBD4+K), each shrimp was injected with 10 μL of WSSV solution after incubation with corresponding synthetic peptides, respectively. At 24 h post injection (hpi), the pleopods of 15 shrimps in each group were collected and the pleopods from three individuals were put together as one sample. Total DNA of each sample was extracted using the Genomic DNA Kit (Tiangen, China). The viral copy number was measured by detecting the level of VP28 using real-time PCR as described previously.
On the technique in general: Quantitative PCR measures a nucleic acid by following its amplification.

The subject of another assay is E. coli. Briefly: Inhibition zone test. Type of assay: cell-based, Escherichia coli. Particulars: 20 μL of 64 μM peptide in PBS pH 7.4 on 6 mm filter paper, solid LB plate, 37 °C, 24 h. How it is done:
Gram-negative bacteria, including Escherichia coli and Aeromonas hydrophila, and Gram-positive bacteria, including Micrococcus luteus and Bacillus simplex were used for antibacterial analyses. The strains were incubated in fresh LB medium overnight at 37 °C for E. coli, M. luteus and 28 °C for A. hydrophila, B. simplex.
The antibacterial activities of LBD peptides were examined by inhibition zone test. The overnight cultures of bacteria were diluted 100 times and cultured in LB medium at 37 °C (E. coli and M. luteus) or 28 °C (A. hydrophila and B. simplex) for 6 h. These cultures were then diluted 100 times with LB medium separately, and 200 μL solutions from each diluted cultures was taken out and spread on the solid LB medium plate uniformly. Sterile filter paper with a diameter of 6 mm was put on the surface of solid LB medium gently. Twenty microliters of 64 μM peptide solution dissolved in PBS (pH 7.4) was added to the center of filter paper with a diameter of 6 mm. Twenty microliters PBS and 20 μL of 64 μM pGFP peptide were used as negative controls. […] ampicillin solutions was used as the positive control for E. coli, M. luteus and B. simplex culture, and 50 μM kanamycin sulfates was used as the positive control for A. hydrophila culture. The plates were cultured at 37 °C (E. coli and M. luteus) or 28 °C (A. hydrophila and B. simplex) for 24 h.

Where a SMILES comes first, the peptide text is derived from it.

Take `CSCC[C@@H]1NC(=O)[C@H](CCCNC(=N)N)NC(=O)CNC(=O)[C@H](CC(N)=O)NC(=O)[C@H](Cc2ccccc2)NC(=O)[C@H](Cc2ccc(O)cc2)NC(=O)[C@H](CC(C)C)NC(=O)[C@H](CCC(=O)O)NC(=O)[C@H](Cc2c[nH]c3ccccc23)NC(=O)[C@H](CCCNC(=N)N)NC(=O)[C@H](Cc2ccc(O)cc2)NC(=O)[C@H](Cc2ccccc2)NC(=O)[C@H](CO)NC(=O)[C@@H]2CCCN2C(=O)[C@H](CCCNC(=N)N)NC(=O)[C@H](CCC(N)=O)NC(=O)[C@H](CO)NC(=O)[C@H](Cc2ccc(O)cc2)NC(=O)[C@H](CCCNC(=N)N)NC(=O)[C@@H](NC(=O)[C@H](CO)NC(C)=O)CSSC[C@@H](C(=O)N2CCC[C@H]2C(N)=O)NC(=O)[C@H](Cc2c[nH]c3ccccc23)NC1=O` [LBD4] (HELM PEPTIDE1{[ac].S.C.R.Y.S.Q.R.P.S.F.Y.R.W.E.L.Y.F.N.G.R.M.W.C.P.[am]}$PEPTIDE1,PEPTIDE1,3:R3-24:R3$$$V2.0): in the assay on WSSV, the WSSV copy number is on record as 7.24 × 10^4 copies/ng DNA. Further, the Inhibition zone entry in the assay on E. coli is recorded as “apparent inhibition zones”.

Consider `CC(=O)N[C@@H](Cc1ccc(O)cc1)C(=O)N[C@H]1CSSC[C@@H](C(=O)N2CCC[C@H]2C(N)=O)NC(=O)[C@H](CCCCN)NC(=O)[C@H](CC(C)C)NC(=O)[C@H](CCC(=O)O)NC(=O)[C@H](C)NC(=O)[C@H](CCCNC(=N)N)NC(=O)[C@H](Cc2ccc(O)cc2)NC(=O)[C@H](Cc2c[nH]cn2)NC(=O)[C@H](C(C)C)NC(=O)[C@H](CCC(=O)O)NC(=O)[C@H](CC(C)C)NC(=O)[C@H](CCCCN)NC(=O)[C@H](CCCCN)NC(=O)[C@H](CC(C)C)NC(=O)[C@H](Cc2ccc(O)cc2)NC(=O)[C@@H]2CCCN2C(=O)[C@H](CO)NC(=O)[C@H](CCCNC(=N)N)NC(=O)[C@H](CO)NC(=O)[C@H](CC(C)C)NC(=O)[C@H](CC(C)C)NC1=O` [LBD5] (HELM PEPTIDE1{[ac].Y.C.L.L.S.R.S.P.Y.L.K.K.L.E.V.H.Y.R.A.E.L.K.C.P.[am]}$PEPTIDE1,PEPTIDE1,3:R3-24:R3$$$V2.0), for which, in the assay on WSSV, the WSSV copy number was 2.07 × 10^3 copies/ng DNA.

For the molecule `CC[C@H](C)[C@@H]1NC(=O)[C@H](Cc2ccccc2)NC(=O)[C@H](Cc2ccc(O)cc2)NC(=O)[C@H](CC(C)C)NC(=O)[C@H](CCC(=O)O)NC(=O)[C@H](Cc2ccccc2)NC(=O)CNC(=O)[C@H](CCC(N)=O)NC(=O)[C@H]([C@@H](C)CC)NC(=O)[C@H](CC(=O)O)NC(=O)[C@@H]2CCCN2C(=O)[C@H](CCCCN)NC(=O)[C@H](C(C)C)NC(=O)[C@H](CO)NC(=O)[C@H](Cc2ccc(O)cc2)NC(=O)[C@H](CO)NC(=O)[C@@H](NC(=O)[C@H](CO)NC(C)=O)CSSC[C@@H](C(=O)N2CCC[C@H]2C(N)=O)NC(=O)[C@H]([C@@H](C)O)NC(=O)[C@H](C(C)C)NC(=O)[C@H](CO)NC(=O)CNC1=O` [LBD6] (HELM PEPTIDE1{[ac].S.C.S.Y.S.V.K.P.D.I.Q.G.F.E.L.Y.F.I.G.S.V.T.C.P.[am]}$PEPTIDE1,PEPTIDE1,3:R3-24:R3$$$V2.0), the WSSV copy number in the assay on WSSV is on record as 1.55 × 10^5 copies/ng DNA. The Inhibition zone entry with E. coli is given as “apparent inhibition zones”.

With “Ac-FKRWQLYFRG-NH2 [sLBD2, a part (ten amino acid residues) of LBD]”, in the assay on WSSV, the WSSV copy number is recorded as 4.04 × 10^3 copies/ng DNA.

As for “Ac-S(CRYSQRPSFKRWELYFNGRMWC)P-NH2 (disulfide) [LBD4+K, same as LBD4 except for the replacement of a tyrosine residue by a lysine residue]”, the WSSV copy number with WSSV is 3.40 × 10^3 copies/ng DNA.

On to “Ac-Y(CSFNVTPKFQRWQLYFRGRMWC)P-NH2 (disulfide) [LBD2-K, same as LBD2 except for the replacement of a lysine residue by a glutamine residue]”, for which, in the assay on WSSV, the WSSV copy number is given as 5.14 × 10^4 copies/ng DNA.

Source of the values: PMC4446596, “Functional Diversity of Anti-Lipopolysaccharide Factor Isoforms in Shrimp and Their Characters Related to Antiviral Activity” (Marine Drugs, 2015).
